Measurements: the supplement of paper PMC10307832

What was measured:
Assay in all cases: relative viability (nuclei count vs DMSO), 5 days (fraction); higher = more cells survive
[1] = compound: C#Cc1cccc(Nc2ncnc3cc(OCCOC)c(OCCOC)cc23)c1 [Erlotinib] + Nc1nc2[nH]cc(CCc3ccc(C(=O)N[C@@H](CCC(=O)O)C(=O)O)cc3)c2c(=O)[nH]1 [Pemetrexed] (partner 0.2 µM)
How it was run: (§1)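 Values are medians from duplicate plates. Each reflects relative viability, defined as the nuclei count of treated wells over that of vehicle wells. Lung cancer cell lines in 1536-well plates were pin-tool dosed one day after seeding with one drug alone or with a fixed anchor-drug dose plus five library-drug doses (not always all listed) in √10 steps, then fixed, stained and imaged at 4× after 5 days.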

[2] = compound: C#Cc1cccc(Nc2ncnc3cc(OCCOC)c(OCCOC)cc23)c1 [Erlotinib] + COc1cccc2cc(-c3nc([C@H]4CC[C@H](C(=O)O)CC4)n4ncnc(N)c34)[nH]c12 [OSI-027] (partner 0.5 µM)
How it was run: as §1

[3] = compound: O=C(Nc1c[nH]nc1-c1nc2ccc(CN3CCOCC3)cc2[nH]1)NC1CC1 [AT9283] + Cc1nc(NC(=O)N2CCC[C@H]2C(N)=O)sc1-c1ccnc(C(C)(C)C(F)(F)F)c1 [Alpelisib] (partner 2 µM)
How it was run: as §1

[4] = compound: O=C(Nc1c[nH]nc1-c1nc2ccc(CN3CCOCC3)cc2[nH]1)NC1CC1 [AT9283] + COc1cc2c(Oc3ccc(NC(=O)C4(C(=O)Nc5ccc(F)cc5)CC4)cc3F)ccnc2cc1OCCCN1CCOCC1 [Foretinib] (partner 0.25 µM)
How it was run: as §1

[5] = compound: O=C(Nc1c[nH]nc1-c1nc2ccc(CN3CCOCC3)cc2[nH]1)NC1CC1 [AT9283] + Cc1nc(Nc2ncc(C(=O)Nc3c(C)cccc3Cl)s2)cc(N2CCN(CCO)CC2)n1 [Dasatinib] (partner 0.075 µM)
How it was run: as §1

Row | Cell Line | relative viability ([1]; first compound 0.02 µM) | relative viability ([1]; first compound 0.2 µM) | relative viability ([1]; first compound 0.6325 µM) | relative viability ([1]; first compound 2 µM) | relative viability ([2]; first compound 0.02 µM) | relative viability ([2]; first compound 0.2 µM) | relative viability ([2]; first compound 0.6325 µM) | relative viability ([2]; first compound 2 µM) | relative viability ([3]; first compound 0.003 µM) | relative viability ([3]; first compound 0.03 µM) | relative viability ([3]; first compound 0.09487 µM) | relative viability ([3]; first compound 0.3 µM) | relative viability ([4]; first compound 0.003 µM) | relative viability ([4]; first compound 0.03 µM) | relative viability ([4]; first compound 0.09487 µM) | relative viability ([4]; first compound 0.3 µM) | relative viability ([5]; first compound 0.003 µM) | relative viability ([5]; first compound 0.03 µM) | relative viability ([5]; first compound 0.09487 µM) | relative viability ([5]; first compound 0.3 µM)
1 | PC-14 | 0.11 | 0.168 | 0.15 | 0.133 | 0.43 | 0.0949 | 0.136 | 0.0777 | 0.992 | 0.893 | 0.554 | 0.1 | 0.956 | 0.796 | 0.581 | 0.16 | 0.221 | 0.146 | 0.0272 | 0.016
2 | 201T | 0.339 | 0.336 | 0.348 | 0.32 | 0.804 | 0.862 | 0.846 | 0.664 | 1.02 | 1.08 | 0.525 | 0.445 | 1.12 | 1.07 | 0.274 | 0.247 | 0.456 | 0.592 | 0.323 | 0.292
3 | NCI-H1651 | 0.619 | 0.417 | 0.509 | 0.52 | 0.628 | 0.698 |  | 0.482 | 1.01 | 0.921 | 0.689 | 0.399 | 0.837 | 0.779 | 0.638 | 0.396 | 0.442 | 0.368 | 0.319 | 0.212
4 | RERF-LC-KJ | 0.461 | 0.457 | 0.444 | 0.44 | 0.528 | 0.417 | 0.394 | 0.337 | 0.808 | 0.738 | 0.441 | 0.251 | 0.922 | 0.498 | 0.279 | 0.22 | 0.864 | 0.391 | 0.212 | 0.188
5 | COR-L 105 | 0.967 | 0.835 | 0.535 | 0.352 | 0.595 | 0.262 | 0.365 | 0.27 | 1.49 | 0.342 | 0.278 | 0.333 | 0.847 | 0.673 | 0.249 | 0.361 | 0.327 | 0.181 | 0.197 | 0.185
6 | NCI-H1915 | 0.532 | 0.482 | 0.434 | 0.487 | 0.651 | 0.713 | 0.679 | 0.55 | 1.01 | 1.06 | 0.24 | 0.222 | 1.04 | 0.995 | 0.451 | 0.256 | 0.276 | 0.289 | 0.141 | 0.141
7 | CAL-12T | 1.43 | 1.15 | 0.929 | 0.662 | 0.672 | 0.47 | 0.219 | 0.26 | 1.27 | 0.956 | 0.362 | 0.296 | 1.1 | 0.773 | 0.414 | 0.283 | 0.495 | 0.204 | 0.124 | 0.12
8 | NCI-H1975 | 0.288 | 0.294 | 0.292 | 0.263 | 0.704 | 0.676 | 0.49 | 0.381 | 0.637 | 0.624 | 0.5 | 0.247 | 0.947 | 0.949 | 0.82 | 0.326 | 0.401 | 0.461 | 0.389 | 0.237
9 | PC-3 [JPC-3] | 0.719 | 0.477 | 0.488 | 0.37 | 0.735 | 0.334 | 0.178 | 0.215 | 1.02 | 0.997 | 0.621 | 0.527 | 1 | 0.974 | 0.591 | 0.543 | 1.06 | 1.02 | 0.876 | 0.718
10 | NCI-H2228 | 0.335 | 0.295 | 0.362 | 0.337 | 0.643 | 0.537 | 0.525 | 0.366 | 0.831 | 0.676 | 0.176 | 0.136 | 0.968 | 0.613 | 0.26 | 0.104 | 0.491 | 0.503 | 0.307 | 0.0747
11 | HARA | 0.259 | 0.21 | 0.186 | 0.222 | 0.575 | 0.492 | 0.44 | 0.217 | 0.643 | 0.844 | 0.0814 | 0.0973 | 0.79 | 0.151 | 0.122 | 0.109 | 0.27 | 0.235 | 0.0621 | 0.0732
12 | NCI-H2347 | 0.454 | 0.401 | 0.439 | 0.409 | 0.345 | 0.444 | 0.415 | 0.272 | 1.16 | 1.04 | 0.606 | 0.451 | 0.844 | 0.869 | 0.672 | 0.446 | 0.342 | 0.313 | 0.26 | 0.223
13 | NCI-H1793 | 1.01 | 0.441 | 0.825 | 0.52 | 0.281 | 0.225 | 0.235 | 0.156 | 0.642 | 0.871 | 0.363 | 0.254 | 0.729 | 0.484 | 0.256 | 0.219 | 0.405 | 0.39 | 0.256 | 0.138
